Patent US6541480B2, “1-aryl-1,8-naphthylidin-4-one derivative as type IV phosphodiesterase inhibitor” (Suntory Limited, priority 1997, dated 2003)
pIC50: −log10 of the molar value. Where a name gives a salt, the structure may show the parent alone.

How the values were obtained:
[1] = test system: type IV phosphodiesterase; assay: Type IV phosphodiesterase inhibiting activity (3H-cAMP hydrolysis, PDE IV fraction from U937 cells); format: biochemical; details: PDE IV fraction from human U937 cells, 30° C., 30 minutes
Procedure: (1) Method of Measurement of Type IV Phosphodiesterase Inhibiting Activity
The following assay was used to evaluate the ability of the compound of the present invention to suppress type IV phosphodiesterase, according to Biochemical.
1) Type IV phosphodiesterase activity fractions were prepared as follows. Human histiocytic lymphoma cell line U937 was cultured in an RPMI1640 medium containing 10% fetal calf serum to obtain 10^9 cells of U937. The cells were recovered by centrifugation and suspended in 40 ml of buffer A (20 mM bis-tris, 5 mM 2-mercaptoethanol, 2 mM benzamidine, 2 mM EDTA, 0.1 mM 4-(2-aminoethyl)benzensulfonyl hydrochloride, 50 mM sodium acetate, pH=6.5). The cells were broken by a sonication and centrifuged (4° C., 10,000G, 10 minutes) to obtain a supernatent. This was filtered by a 0.45 μm filter to obtain the soluble fraction.
The soluble fraction obtained was applied into a 1×10 cm DEAE Sepharose column equalibrated with the buffer A. 120 ml of the buffer A containing a linear gradient solution of 0.05 to 1 M sodium acetate was used to separate the phosphodiesterase and recover 24 5-ml fractions. Each of the fractions was measured for the cAMP phosphodiesterase activity.
2) The test compound was reacted at a desired concentration in a reaction mixture containing 20 mM tris-HCl (pH 7.5), 1 mM MgCl2, 100 μM EDTA, 330 μg/ml calf serum albumin, 10 μg/ml 5′-nucleotidase, 0.4 μCi ^3H-cAMP ([…] cAMP) and the type IV phosphodiesterase stored solution at 30° C. for 30 minutes. QAE-Sephadex suspended in 10 mM of hepes-Na (pH-7.0) was added to the reaction mixture which was then allowed to stand for 5 minutes, then the supernatant was obtained, QAE-Sephadex was further added, to the supernatant, and was allowed to stand for 5 minutes, then the supernatant was obtained and measured for radioactivity.

[2] = test system: TNF-α production by LPS stimulated mouse peritoneal macrophages; assay: TNF-α production inhibitory activity by LPS stimulated macrophages (ELISA); format: cell-based; details: LPS 10 μg/ml, 8 hours
Procedure: (1) Method of Measurement of TNF-α Production Inhibitory Activity by LPS Stimulated Macrophages
The following assay was used to evaluate the ability of the compound of the present invention to suppress TNF-α production by LPS stimulated macrophages according to Immuno pharmacol. 29, 121-127 (1995).
1) 6 to 10 week old female BALB/c mice were used, 2 ml portions of thioglycolate were intraperitoneally administered, and the abdominal cavities were washed by 10 ml of PBS after 4 days, whereby 1 to 2×10^7 peritoneal cells were obtained per mouse. These were suspended in a hemocyte solution (0.75% ammonium chloride, 17 mM tris-hydrochlorate buffer, pH7.2), centrifuged, then resuspended in an RPMI1640 medium including 10% fetal calf serum and seeded in a 96-well cell culture plate at a density of 1×10^5 cells/50 μl/well. Since these cells adhered strongly to the tissue culture plate and were positive in nonspecific esterase staining, they were used for the test as mouse peritoneal macrophages. Mouse peritoneal macrophages were precultured overnight at 37° C. in 5% CO2 for the experiment.
2) E. Coli (serum type 055:B5) derived LPS was dissolved in PBS in a concentration of 1 mg/ml, then sterilized by filtration. The test compound was dissolved in DMSO to make a 1000-fold concentration solution of the final concentration of use. 10 μl of the above LPS stock solution (final concentration 10 μg/ml) and 1 μl of the tested substance stock solution were added and mixed in 0.5 ml of RPMI1640 medium containing 10% fetal calf serum. This was added to the above cells at 50 μl/well and cultured for 8 hours. The cultured supernatant was recovered from each well and the TNF-α concentration was measured by the ELISA method (Cytoscreen® Immunoassay Kit Mouse TNF-α, BioSource International).

Row | SMILES | pIC50 [1] | pIC50 [2] | pIC50 ([2]; Peritoneal macrophage)
1 | O=C(Nc1c(Cl)cncc1Cl)c1cn(-c2cccnc2)c2ncccc2c1=O [Example 136, N-(3,5-Dichloropyridin-4-yl)-1-(3-pyridyl)-1,4-dihydro[1,8]naphthylidin-4-one-3-carboxamide] | 9.10 | 8.52 | –
2 | COc1ccc(-n2cc(C(=O)Nc3ccncc3)c(=O)c3cccnc32)cc1 [Example 122, 1-(4-Methoxyphenyl)-N-(4-pyridyl)-1,4-dihydro[1,8]naphthylidin-4-one-3-carboxamide] | 7.24 | – | 9.00
3 | CC(C)NC(=O)c1cn(-c2ccc(F)cc2)c2ncccc2c1=O [Example 53, 1-(4-Fluorophenyl)-N-isopropyl-1,4-dihydro[1,8]naphthylidin-4-one-3-carboxamide] | 7.57 | – | 8.00
4 | COc1cccc(NC(=O)c2cn(-c3ccc(F)cc3)c3ncccc3c2=O)c1 [Example 77, 1-(4-Fluorophenyl)-N-(3-methoxyphenyl)-1,4-dihydro[1,8]naphthylidin-4-one-3-carboxamide] | 6.74 | – | 7.00
5 | O=C(NCCc1ccccc1)c1cn(-c2ccc(F)cc2)c2ncccc2c1=O [Example 65, 1-(4-Fluorophenyl)-N-(2-phenylethyl)-1,4-dihydro[1,8]naphthylidin-4-one-3-carboxamide] | 6.57 | – | 6.22
6 | O=C(Nc1c(Cl)cncc1Cl)c1cn(-c2ccc(O)nc2)c2ncccc2c1=O [Example 147, N-(3,5-Dichloropyridin-4-yl)-1-(2-hydroxypyridin-5-yl)-1,4-dihydro[1,8]naphthylidin-4-one-3-carboxamide] | 8.96 | – | 7.70
7 | O=C(Nc1ccccc1O)c1cn(-c2ccc(F)cc2)c2ncccc2c1=O [Example 73, 1-(4-Fluorophenyl)-N-(2-hydroxyphenuyl)-1,4-dihydro[1,8]naphthylidin-4-one-3-carboxamide] | 6.09 | – | 6.00
8 | O=C(Nc1cccc(O)c1)c1cn(-c2ccc(F)cc2)c2ncccc2c1=O [Example 74, 1-(4-Fluorophenyl)-N-(3-hydroxythenyl)-1,4-dihydro[1,8]naphthylidin-4-one-3-carboxamide] | 6.38 | – | 6.40
9 | O=C(Nc1c(Cl)cncc1Cl)c1cn(-c2ccc(Cl)cc2)c2ncccc2c1=O [Example 125, 1-(4-Chlorophenyl)-N-(3,5-dichloropyridin-4-yl)-1,4-dihydro[1,8]naphthylidin-4-one-3-carboxamide] | 9.10 | – | 9.30
10 | O=C(Nc1cccnc1Cl)c1cn(-c2ccc(F)cc2)c2ncccc2c1=O [Example 105, N-(2-Chloropyridin-3-yl)-1-(4-fluorophenyl)-1,4-dihydro[1,8]naphthylidin-4-one-3-carboxamide] | 7.07 | – | 6.40
11 | O=C(NCc1ccncc1)c1cn(-c2ccc(F)cc2)c2ncccc2c1=O [Example 64, 1-(4-Fluorophenyl)-N-(4-pyridyl)methyl-1,4-dihydro[1,8]naphthylidin-4-one-3-carbdxamide] | 6.92 | – | 7.00
12 | O=C(NCc1ccccc1)c1cn(-c2ccc(F)cc2)c2ncccc2c1=O [Example 61, N-benzyl-1-(4-fluorophenyl)-1,4-dihydro[1,8]naphthylidin-4-one-3-carboxamide] | 6.41 | – | 6.00
13 | O=C(Nc1ccncc1)c1cn(-c2cccc(CO)c2)c2ncccc2c1=O [Example 127, 1-(3-Hydroxymethylphenyl)-N-(4-pyridyl)-1,4-dihydro[1,8]naphthylidin-4-one-3-carboxamide] | 7.25 | – | 6.52
14 | Nc1cccc(NC(=O)c2cn(-c3ccc(F)cc3)c3ncccc3c2=O)c1 [Example 91, N-(3-aminophenyl)-1-(4-fluorophenyl)-1,4-dihydro[1,8]naphthylidin-4-one-3-carboxamide] | 7.28 | – | 7.00
15 | CCn1cc(C(=O)NCCc2ccncc2)c(=O)c2ccc(C)nc21 [Comp. Ex., N-(2-(4-pyridyl)ethyl)-1-ethyl-7-methyl-1,4-dihydro[1,8]naphthylidin-4-one-3-carboxyamide, reference compound] | 5.28 | – | 5.00
16 | O=C(Nc1c(Cl)cncc1Cl)c1cn(-c2ccc(OCc3ccccc3)nc2)c2ncccc2c1=O [Example 146, 1-(2-Benzyloxypyridin-5-yl)-N-(3,5-dichloropyridin-4-yl)-1,4-dihydro[1,8]naphthylidin-4-one-3-carboxamide] | 8.77 | – | 8.00
17 | O=C(NC1CCCCC1)c1cn(-c2ccc(F)cc2)c2ncccc2c1=O [Example 57, N-cyclohexyl-1-(4-fluorophenyl)-1,4-dihydro[1,8]naohthylidin-4-one-3-carboxamide] | 6.15 | – | 6.00
18 | Cc1cnccc1NC(=O)c1cn(-c2ccc(F)cc2)c2ncccc2c1=O [Example 104, 1-(4-Fluorophenyl)-N-(3-methylpyridin-4-yl)-1,4-dihydro[1,8]naphthylidin-4-one-3-carboxamide] | 7.72 | – | 9.52
19 | C=CCNC(=O)c1cn(-c2ccc(F)cc2)c2ncccc2c1=O [Example 54, N-allyl-1-(4-fluorophenyl)-1,4-dihydro[1,8]naphthylidin-4-one-3-carboxamide] | 7.46 | – | 7.00
20 | O=C(Nc1c(Cl)cncc1Cl)c1cn(-c2ccccn2)c2ncccc2c1=O [Example 133] | 8.19 | 8.40 | –
21 | O=C(Nc1ccccc1)c1cn(-c2ccc(F)cc2)c2ncccc2c1=O [Example 67, N-phenyl-1-(4-fluorophenyl)-1,4-dihydro[1,8]naphthylidin-4-one-3-carboxamide] | 7.22 | – | 6.15
22 | COc1ccc(C2CNC(=O)C2)cc1OC1CCCC1 (stereo not shown) [Rolipram, reference compound] | – | – | 7.00
23 | Nc1ccc(NC(=O)c2cn(-c3ccc(F)cc3)c3ncccc3c2=O)cc1 [Example 92, N-(4-aminophenyl)-1-(4-fluorophenyl)-1,4-dihydro[1,8]naphthylidin-4-one-3-carboxamide] | 6.85 | – | 6.70
24 | O=C(Nc1c(Cl)cccc1Cl)c1cn(-c2ccncc2)c2ncccc2c1=O [Example 137, N-(2,6-Dichlorophenyl)-1-(4-pyridyl)-1,4-dihydro[1,8]naphthylidin-4-one-3-carboxamide] | 8.31 | – | 8.40
25 | Nc1ccc(-n2cc(C(=O)Nc3ccncc3)c(=O)c3cccnc32)cn1 [Example 143, 1-(2-Aminopyridin-5-yl)-N-(4-pyridyl)-1,4-dihydro[1,8]naphthylidin-4-one-3-carboxamide hydrochloride] | 6.85 | – | 6.82
26 | Cc1ccccc1NC(=O)c1cn(-c2ccc(F)cc2)c2ncccc2c1=O [Example 69, 1-(4-Fluorophenyl)-N-(2-tolyl)-1,4-dihydro[1,8]naphthylidin-4-one-3-carboxamide] | 7.89 | – | 7.00
27 | O=C(NCCc1ccncc1)c1cn(-c2ccccc2)c2ncccc2c1=O [Example 119, 1-Phenyl-N-[2-(4-pyridyl)ethyl]-1,4-dihydro[1,8]naphthylidin-4-one-3-carboxamide] | 6.60 | 6.15 | –
28 | CC(C)(C)OC(=O)Nc1ncc(-n2cc(C(=O)Nc3ccncc3)c(=O)c3cccnc32)cn1 [Example 150, 1-(2-tert-Butyloxycarbonylaminopyrimidin-5-yl)-N-(4-pyridyl)-1,4-dihydro[1,8]naphthylidin-4-one-3-carboxamide] | – | 6.40 | –
29 | N=C(N)c1cccc(NC(=O)c2cn(-c3ccc(F)cc3)c3ncccc3c2=O)c1 [Example 97, N-(benzamidin-3-yl)-1-(4-fluorophenyl)-1,4-dihydro[1,8]naphthylidin-4-one-3-carboxamide hydrochloride] | 6.33 | – | –
